# Measurements reported in ChEMBL document CHEMBL1146267, “2,6-Disubstituted N-arylsulfonyl piperidines as gamma-secretase inhibitors” (Bioorg Med Chem Lett, 2007).
# pIC50: −log10 of the molar value.
# Target: Gamma-secretase
# Assay: Inhibition of gamma secretase-mediated amyloid-beta peptid […]
# Format: protein-complex assay, Homo sapiens
row,Compound,pIC50
1,O=C(NCCCn1ccnc1)OCC1CCc2ccc(F)cc2N1S(=O)(=O)c1ccc(Cl)cc1 (configuration not stated),6.57
2,CC1CCC2CCCCC2N1S(=O)(=O)c1ccc(Cl)cc1 (configuration not stated),5.60
3,O=C(OCC1CCc2ccc(F)cc2N1S(=O)(=O)c1ccc(Cl)cc1)N1CCCC1 (configuration not stated),6.17
4,O=C(NCCCn1ccnc1)OCC1CCCCN1S(=O)(=O)c1ccc(Cl)cc1 (configuration not stated),4.81
5,O=C(OC[C@H]1CCC[C@@H](c2cccc(F)c2)N1S(=O)(=O)c1ccc(Cl)cc1)N1CCC(N2CCCCC2)CC1 [listing 1 of 2 here],8.52
6,O=C(OC[C@H]1CCC[C@@H](c2cccc(F)c2)N1S(=O)(=O)c1ccc(Cl)cc1)N1CCC(N2CCCCC2)CC1 [listing 2 of 2 here],7.08
7,CC1CN(C2CCCCC2)CCN1C(=O)OC[C@H]1CCC[C@@H](c2ccccc2)N1S(=O)(=O)c1ccc(Cl)cc1 (mixture of isomers),7.15
8,CC1CN(CC2CC2)CCN1C(=O)OC[C@H]1CCC[C@@H](c2ccccc2)N1S(=O)(=O)c1ccc(Cl)cc1 (mixture of isomers),7.43
9,CC1CN(CC2CC2)CCN1C(=O)OC[C@H]1CCC[C@@H](c2cccc(F)c2)N1S(=O)(=O)c1ccc(Cl)cc1 (mixture of isomers),7.59
10,CC1CC(N2CCCCC2)CCN1C(=O)OC[C@H]1CCC[C@@H](c2cccc(F)c2)N1S(=O)(=O)c1ccc(Cl)cc1 (mixture of isomers),7.89
11,CC1CC(N2CCCCC2)CCN1C(=O)OC[C@H]1CCC[C@@H](c2cc(F)cc(F)c2)N1S(=O)(=O)c1ccc(Cl)cc1 (mixture of isomers),8.15
12,C[C@@H]1CCC[C@H](COC(=O)N2CCC(N(C)C3CCN(C)CC3)CC2)N1S(=O)(=O)c1ccc(Cl)cc1 (racemic),6.66
13,C[C@@H]1CCC[C@H](COC(=O)N2CCC(N3CCCCC3)CC2)N1S(=O)(=O)c1ccc(Cl)cc1 (racemic),7.12
14,CC[C@@H]1CCC[C@H](COC(=O)N2CCC(N(C)C3CCN(C)CC3)CC2)N1S(=O)(=O)c1ccc(Cl)cc1 (racemic),6.80
15,O=C(OC[C@H]1CCC[C@@H](Cc2ccccc2)N1S(=O)(=O)c1ccc(Cl)cc1)N1CCC(N2CCCCC2)CC1 (racemic),5.32
16,O=C(OC[C@H]1CCC[C@@H](c2ccccc2F)N1S(=O)(=O)c1ccc(Cl)cc1)N1CCN(C2CCCCC2)CC1 (racemic),7.77

row,Compound,pIC50
1,O=C(OC[C@H]1CCC[C@@H](c2cccc(F)c2)N1S(=O)(=O)c1ccc(Cl)cc1)N1CCN(C2CCCCC2)CC1 (racemic),7.42
2,O=C(OC[C@H]1CCC[C@@H](c2cccc(F)c2)N1S(=O)(=O)c1ccc(Cl)cc1)N1CCC(N2CCCCC2)CC1 (racemic),7.96
3,O=C(OC[C@H]1CCC[C@@H](c2cc(F)ccc2F)N1S(=O)(=O)c1ccc(Cl)cc1)N1CCN(C2CCCCC2)CC1 (racemic),7.55
4,O=C(OC[C@H]1CCC[C@@H](c2cc(F)cc(F)c2)N1S(=O)(=O)c1ccc(Cl)cc1)N1CCN(C2CCCCC2)CC1 (racemic),7.44
5,O=C(OC[C@H]1CCC[C@@H](c2cc(F)cc(F)c2)N1S(=O)(=O)c1ccc(Cl)cc1)N1CCC(N2CCCCC2)CC1 (racemic),8.40
6,O=C(OC[C@H]1CCC[C@@H](c2ccc(F)c(F)c2)N1S(=O)(=O)c1ccc(Cl)cc1)N1CCC(N2CCCCC2)CC1 (racemic),8.10
7,CN1CCC(N(C)C2CCN(C(=O)OC[C@H]3CCC[C@@H](Cc4ccccc4)N3S(=O)(=O)c3ccc(Cl)cc3)CC2)CC1 (racemic),4.91
8,O=C(OC[C@H]1CCC[C@@H](c2cc(F)ccc2F)N1S(=O)(=O)c1ccc(Cl)cc1)N1CCC(N2CCCCC2)CC1 (racemic),8.00
9,O=C(OC[C@H]1CCC[C@@H](c2ccc(F)c(F)c2)N1S(=O)(=O)c1ccc(Cl)cc1)N1CCN(C2CCCCC2)CC1 (racemic),7.59
10,O=C(OC[C@H]1CCC[C@@H](c2ccccc2)N1S(=O)(=O)c1ccc(Cl)cc1)N1CCN(C2CCCCC2)CC1 (racemic),7.17
11,O=C(OC[C@H]1CCC[C@@H](c2ccccc2F)N1S(=O)(=O)c1ccc(Cl)cc1)N1CCC(N2CCCCC2)CC1 (racemic),8.10
12,O=C(OC[C@H]1CCC[C@@H](c2ccccc2)N1S(=O)(=O)c1ccc(Cl)cc1)N1CCC(N2CCCCC2)CC1 (racemic),7.80
13,C[C@@H]1CCC[C@@H](COC(=O)NCCCn2ccnc2)N1S(=O)(=O)c1ccc(Cl)cc1 (relative stereo),5.19
14,C[C@@H]1CCC[C@H](COC(=O)NCCCn2ccnc2)N1S(=O)(=O)c1ccc(Cl)cc1 (relative stereo),6.24
15,C[C@@H]1CCC[C@H](COC(=O)N2CCCC2)N1S(=O)(=O)c1ccc(Cl)cc1 (relative stereo),5.71
16,C[C@@H]1CCC[C@@H](COC(=O)N2CCCC2)N1S(=O)(=O)c1ccc(Cl)cc1 (relative stereo),4.97
